Test results published in patent US5407918A, “16-membered macrolide derivatives and process for producing the same” (Meiji Seika Kaisha, Ltd., priority 1992, dated 1995).
≈ marks a conversion by molar mass, not a printed value. Read-outs that look alike come from different tables or passages of the source.

Columns and labels:
[1] = test system: Gram-positive bacteria and Mycoplasma; assay: antimicrobial activity in vitro (summary in words); type: cell-based; conditions: from Table 1
Description: (§1) Antimicrobial activities of the compounds of the present invention were determined by measuring minimum inhibitory concentration (MIC). Minimum inhibitory concentration was determined by the agar plate dilution method in the following manner.
(§2) Test strains were subjected to seed culture using Sensitivity test broth (STB, Nissui Pharmaceutical) except that the strains belonging to the genus Streptococcus, Branhamella and Haemophilus were cultured on blood agar plate. A 5 μl portion of cell suspension of the test strains having about 10^6 CFU/ml was inoculated into Sensitivity disk agar (SDA, Nissui Pharmaceutical) supplemented with 5% horse blood and incubated at 37° C. for 20 hours. Then, MIC was measured. For comparison, MDM and leucomycin A7 (LM-A7) was also tested.

[2] = test system: E. coli NIHJ JC-2; assay: MIC, agar plate dilution method; type: cell-based; conditions: Escherichia coli, read-out: Antimicrobial activity (MIC)
Description: as §1, §2

[3] = test system: S. aureus 209P JC-1; assay: MIC, agar plate dilution method; type: cell-based; conditions: Staphylococcus aureus; S. aureus 209P JC-1; 37° C., 20 hours; read-out: Antimicrobial activity (MIC)
Description: as §1, §2

[4] = test system: M. pneumoniae Mac; assay: MIC, agar plate dilution method; type: cell-based; conditions: Mycoplasmoides pneumoniae, 20 h, read-out: Antimicrobial activity (MIC)
Description: as §1, §2

[5] = test system: H. influenzae 9334; assay: MIC, agar plate dilution method; type: cell-based; conditions: read-out: Antimicrobial activity (MIC)
Description: as §1, §2

[6] = test system: M. pneumoniae Numata; assay: MIC, agar plate dilution method; type: cell-based; conditions: Mycoplasmoides pneumoniae, 20 h, read-out: Antimicrobial activity (MIC)
Description: as §1, §2

[7] = test system: S. Pneumoniae Type 1; assay: MIC, agar plate dilution method; type: cell-based; conditions: Streptococcus pneumoniae, read-out: Antimicrobial activity (MIC)
Description: as §1, §2

[8] = test system: K. pneumoniae PC1602; assay: MIC, agar plate dilution method; type: cell-based; conditions: Klebsiella pneumoniae, 37° C., 20 hours, read-out: Antimicrobial activity (MIC)
Description: as §1, §2

[9] = test system: S. aureus M126; assay: MIC, agar plate dilution method; type: cell-based; conditions: Staphylococcus aureus; S. aureus M126; 37° C., 20 hours; read-out: Antimicrobial activity (MIC)
Description: as §1, §2

[10] = test system: S. aureus MS15026; assay: MIC, agar plate dilution method; type: cell-based; conditions: Staphylococcus aureus, 37° C., 20 hours, read-out: Antimicrobial activity (MIC)
Description: as §1, §2

[11] = test system: M. pneumoniae FH-P24; assay: MIC, agar plate dilution method; type: cell-based; conditions: Mycoplasmoides pneumoniae, FHP24, 20 h, read-out: Antimicrobial activity (MIC)
Description: as §1, §2

[12] = test system: E. faecalis W-73; assay: MIC, agar plate dilution method; type: cell-based; conditions: Enterococcus faecalis, read-out: Antimicrobial activity (MIC)
Description: as §1, §2

[13] = test system: B. catarrhalis W-0500; assay: MIC, agar plate dilution method; type: cell-based; conditions: Moraxella catarrhalis, W0500, 37° C., 20 hours, read-out: Antimicrobial activity (MIC)
Description: as §1, §2

[14] = test system: S. epidermidis ATCC14990; assay: MIC, agar plate dilution method; type: cell-based; conditions: Staphylococcus epidermidis, 37° C., 20 hours, read-out: Antimicrobial activity (MIC)
Description: as §1, §2

[15] = test system: B. catarrhalis W-0506; assay: MIC, agar plate dilution method; type: cell-based; conditions: Moraxella catarrhalis, W0506, 37° C., 20 hours, read-out: Antimicrobial activity (MIC)
Description: as §1, §2

[16] = test system: M. luteus ATCC9341; assay: MIC, agar plate dilution method; type: cell-based; conditions: Micrococcus luteus; M. luteus ATCC9341; 37° C., 20 hours; read-out: Antimicrobial activity (MIC)
Description: as §1, §2

[17] = test system: S. aureus MS15009/pMS98; assay: MIC, agar plate dilution method; type: cell-based; conditions: Staphylococcus aureus, MS15009/PMS98, 20 h, read-out: Antimicrobial activity (MIC)
Description: as §1, §2

[18] = test system: S. pneumoniae IP692; assay: MIC, agar plate dilution method; type: cell-based; conditions: Streptococcus pneumoniae; S. pneumoniae IP692; 37° C., 20 hours; read-out: Antimicrobial activity (MIC)
Description: as §1, §2

[19] = test system: S. aureus M133; assay: MIC, agar plate dilution method; type: cell-based; conditions: Staphylococcus aureus, 37° C., 20 hours, read-out: Antimicrobial activity (MIC)
Description: as §1, §2

[20] = test system: S. Pyogenes Cook; assay: MIC, agar plate dilution method; type: cell-based; conditions: Streptococcus pyogenes, 37° C., 20 hours, read-out: Antimicrobial activity (MIC)
Description: as §1, §2

[21] = test system: S. aureus MS15009/pMS99; assay: MIC, agar plate dilution method; type: cell-based; conditions: Staphylococcus aureus, MS15009/PMS99, 20 h, read-out: Antimicrobial activity (MIC)
Description: as §1, §2

[22] = test system: S. aureus MS15027; assay: MIC, agar plate dilution method; type: cell-based; conditions: Staphylococcus aureus, 37° C., 20 hours, read-out: Antimicrobial activity (MIC)
Description: as §1, §2

[23] = test system: M. pneumoniae FH; assay: MIC, agar plate dilution method; type: cell-based; conditions: Mycoplasmoides pneumoniae, 20 h, read-out: Antimicrobial activity (MIC)
Description: as §1, §2

[24] = test system: M. luteus
Description: Each test compound and 50 μl of a methanol solution (10,000 γ) were added to 950 μl of thawed rat plasma and the resulting mixture was incubated at 37° C. for 24 hours. After completion of the incubation, a 20 μl portion of the mixture was added to 980 μl of 0.05M phosphate buffer (pH 7.6). A 20 μl portion of the sample solution was used to measure antimicrobial activity against M. luteus.

[25] = metabolism in plasma; type: in vitro ADME, rat; conditions: no free hydroxyl group in the neutral sugar moiety formed
Description: Each test compound and 50 μl of a methanol solution (10,000 γ) were added to 950 μl of thawed rat plasma and the resulting mixture was incubated at 37° C. for 24 hours. After completion of the incubation, a 20 μl portion of the mixture was added to 980 μl of 0.05M phosphate buffer (pH 7.6). A 20 μl portion of the sample solution was used to measure antimicrobial activity against M. luteus. Separately, the calibration curve was prepared by using a methanol solution containing each test compound. The starting activity of each compound in the plasma was referred to as 100%.

[26] = test system: test strains; assay: antimicrobial activity in vitro, comparison in words; type: cell-based
Description: as §1, §2

[27] = test system: Gram-positive bacteria; assay: antimicrobial activity in vitro (summary in words); type: cell-based; conditions: from Tables 2 and 3
Description: as §1, §2

[28] = test system: H. influenzae Type b; assay: MIC, agar plate dilution method; type: cell-based; conditions: Haemophilus influenzae; H. influenzae Type b; 37° C., 20 hours; read-out: Antimicrobial activity (MIC)
Description: as §1, §2

| SMILES | MIC [3] [µg/mL] | MIC [8] [µg/mL] | MIC [9] [µg/mL] | MIC [10] [µg/mL] | MIC [13] [µg/mL] | MIC [14] [µg/mL] | MIC [15] [µg/mL] | MIC [16] [µg/mL] | MIC [17] [µg/mL] | MIC [18] [µg/mL] | MIC [19] [µg/mL] | MIC [20] [µg/mL] | MIC [21] [µg/mL] | MIC [22] [µg/mL] | also measured |
| --- | --- | --- | --- | --- | --- | --- | --- | --- | --- | --- | --- | --- | --- | --- | --- |
| CCCCO[C@H]1[C@H](C)O[C@@H](O[C@H]2[C@H](N(C)C)[C@@H](O)[C@H](O[C@H]3[C@@H](CC=O)C[C@@H](C)[C@@H](O)/C=C/C=C/C[C@@H](C)OC(=O)C[C@@H](OC(=O)CC)[C@@H]3OC)O[C@@H]2C)C[C@@]1(C)OC [(2)] | 0.39 (≈ 0.471 µM) | > 100 | > 100 | > 100 | 1.56 (≈ 1.88 µM) | 1.56 (≈ 1.88 µM) | 1.56 (≈ 1.88 µM) | 0.05 (≈ 0.0604 µM) | 0.39 (≈ 0.471 µM) | 0.05 (≈ 0.0604 µM) | 0.78 (≈ 0.942 µM) | 0.2 (≈ 0.242 µM) | > 100 | 0.78 (≈ 0.942 µM) | antimicrobial activities compared with MDM [1]: comparable to, or even exceeding, that of MDM; antimicrobial activities on Gram-positive bacteria and Mycoplasma [1]: strong antimicrobial activities; MIC ([2]; NIHJJC2, 20 h): > 100 µg/mL; MIC [4]: 0.1 µg/mL (≈ 0.121 µM); MIC ([5]; Haemophilus influenzae, 9334, 20 h): 6.25 µg/mL (≈ 7.55 µM); MIC [6]: 0.05 µg/mL (≈ 0.0604 µM); MIC ([7]; 20 h): 0.2 µg/mL (≈ 0.242 µM); MIC [11]: 0.1 µg/mL (≈ 0.121 µM); MIC ([12]; W73, 20 h): 3.13 µg/mL (≈ 3.78 µM); MIC [23]: 1.56 µg/mL (≈ 1.88 µM); degree of loss of the antimicrobial activity in the plasma compared with MOM [24]: lower than that of MOM; duration of antimicrobial activity in rat plasma [24]: extremely long-acting in rat plasma; extent of metabolism [25]: hardly metabolized |
| CCCCCO[C@H]1[C@H](C)O[C@@H](O[C@H]2[C@H](N(C)C)[C@@H](O)[C@H](O[C@H]3[C@@H](CC=O)C[C@@H](C)[C@@H](O)/C=C/C=C/C[C@@H](C)OC(=O)C[C@@H](O)[C@@H]3OC)O[C@@H]2C)C[C@@]1(C)OC [(11)] | 0.1 (≈ 0.127 µM) | > 100 | > 100 | > 100 | 0.39 (≈ 0.496 µM) | 0.39 (≈ 0.496 µM) | 0.78 (≈ 0.992 µM) | 0.05 (≈ 0.0636 µM) | 0.39 (≈ 0.496 µM) | 0.05 (≈ 0.0636 µM) | 0.39 (≈ 0.496 µM) | 0.1 (≈ 0.127 µM) | > 100 | 0.39 (≈ 0.496 µM) | antimicrobial activity in vitro compared with MOM ([26]; data are not shown): clearly much superior to MOM; antimicrobial activity compared with LM-A7 ([26]; except on Haemophilus influenzae, Tables 2 and 3): comparable or superior; antimicrobial activity on Gram-positive bacteria [27]: strong antimicrobial activity; MIC ([2]; NIHJJC2, E. coli NIHJ JC-2, 37° C., 20 hours): > 100 µg/mL; MIC ([5]; Haemophilus influenzae, H. influenzae 9334, 37° C., 20 hours): 3.13 µg/mL (≈ 3.98 µM); MIC [28]: 12.5 µg/mL (≈ 15.9 µM); MIC ([7]; S. Pneumoniae Type 1, 37° C., 20 hours): 0.2 µg/mL (≈ 0.254 µM); MIC ([12]; W73, E. faecalis W-73, 37° C., 20 hours): 0.39 µg/mL (≈ 0.496 µM) |
